From PMC7450057, “Enhancing intracellular accumulation and target engagement of PROTACs with reversible covalent chemistry” (Nature Communications, 2020) come the findings set out here.

Values joined by “and” are separate entries in the source; they are usually repeats but may differ in a detail not shown here. Equal entries are not always repeated.

The target of one data set is BTK (Mus musculus, UniProt P35991). In words: Pharmacodynamics: splenic BTK level in mice (western blot). Also noted: from tissue; host or cells: spleen of female ICR mice. To be noted: for BTK level, mean: Figure 5d, DMSO = 100; for BTK quantification: Supplementary Figure 8, individual animals. In kind it is in vivo, ICR mice. The procedure:
The collected cells and spleen tissues were lysed in RIPA lysis buffer (50 mM Tris-HCl, pH 7.4, 150 mM NaCl, 1% NP-40, 0.5% sodium deoxycholate, 0.1% SDS) supplemented with Halt™ Protease and Phosphatase Inhibitor Cocktail (Thermo Fisher Scientific, Cat. No. PI78440) immediately before use. Lysates were centrifuged at 15,000 × g for 10 min at 4 °C and the supernatant was quantified for total protein concentration using the Pierce BCA Protein Assay (Thermo Fisher Scientific, Cat. No. 23225). Thirty micrograms of protein were loaded onto sodium dodecyl sulfate−polyacrylamide gel for electrophoresis (Bio-Rad) and transferred onto PVDF membranes (Millipore, Cat. No. IPVH00010). […] Imaging was performed using the ECL Prime chemiluminescent western blot detection reagents (GE Healthcare, Cat. No. RPN2232) by visualization of the blots to X-Ray film or with an Imager (Kindle Biosciences, Cat. No. D1001). All western blots were subsequently processed and quantified with Imager software. Protein level was normalized to β-actin or GAPDH loading controls.
To investigate the protein degradation effect of RC-1 in vivo, mice were subjected to single RC-1 administration at the dose of 50 or 100 mg kg^−1 (i.p.) or seven once-daily RC-1 administration at the dose of 20 mg kg^−1 (i.p.) (n = 2–3). Twenty-four hours after the one-time RC-1 injection or 24 h after the 7th injection, mice were anesthetized with isoflurane and the whole spleen was dissected and stored at −80 °C for western blot analysis of protein level.
Background: In western blotting, separated proteins are transferred to a membrane and probed.

Data set [1] in a line: Pharmacokinetics of RC-1 in mice. Type of data set: in vivo, ICR mice. The procedure:
The pharmacokinetic profile of the BTK PROTAC RC-1 was evaluated in female ICR mice (weighing 22-28 g, n = 3). RC-1 was formulated in a […] solvent (30% PEG-400, 5% Tween 80, and 5% DMSO in deionized water) and was administered in a single IP injection (20 mg kg^−1). Blood samples (25 µL) were withdrawn from the tail vein at the time points of 10 min, 30 min, 1 h, 2 h, 4 h, 8 h, and up to 24 h after dosing. The blood samples were collected into 1.5 mL centrifuge tubes coated with 0.5 M EDTA and were immediately centrifuged at 12,000 × g at 4 °C for 15 min. The resultant plasma was extracted with 9 vol of acetonitrile (containing internal standard: 250 nM of RNC-Ctrl) and then were centrifuged at the same conditions described above. The supernatant was stored at −80 °C for liquid chromatography-mass spectrometry analysis. The standard curve was established by serially diluted RC-1 in plasma collected from naïve mice (from 5.0 to 0.003 μg mL^−1, 4-fold dilution). The PK parameters were calculated with the Microsoft Excel PK Solver.

Data set [2] concerns the target T1, {BTK-PROTAC-CRBN} ternary complex (Homo sapiens, UniProt Q06187+Q96SW2).
T1 construct: full-length CRBN was first cloned into pcDNA3 containing EGFP; expressed in transfected cells; host or cells: HEK293T/17
In words: BTK-SPPIER imaging of ternary complex formation in live cells. In kind it is cell-based. The settings on record: HEK293T/17 cells, 10 µM. An excerpt: To visualize small molecule-induced protein–protein interactions (PPIs), we recently applied fluorophore phase transition-based principle and designed a PPI assay named separation of phases-based protein interaction reporter (SPPIER)[36]. A SPPIER protein design includes three domains, a protein-of-interest, an enhanced GFP (EGFP), and a homo-oligomeric tag (HOTag). Upon small molecule-induced PPI between two proteins-of-interest, multivalent PPIs from HOTags drive EGFP phase separation, forming brightly fluorescent droplets. […] If PROTACs can induce {BTK-PROTAC-CRBN} ternary complex formation in cells, they will crosslink the BTK^KD-EGFP-HOTag6 tetramers and the CRBN-EGFP-HOTag3 hexamers to produce EGFP phase separation, which can be conveniently visualized with a fluorescence microscope. […]
HEK293T/17 cells were transiently transfected with the plasmid using calcium phosphate transfection reagent or lipofectamine. […] Fluorescence images were acquired with an exposure time of 50 ms for EGFP. […]
For analysis of the SPPIER signal, images were processed in imageJ. The sum of droplet pixel fluorescence intensity and cell pixel intensity was scored using the Analyze Particle function in imageJ.

[3] abbreviates: female, mouse, ip, 20 mg kg^−1, i.p., ICR mice, plasma.

BTK, sequence (P35991 whole entry): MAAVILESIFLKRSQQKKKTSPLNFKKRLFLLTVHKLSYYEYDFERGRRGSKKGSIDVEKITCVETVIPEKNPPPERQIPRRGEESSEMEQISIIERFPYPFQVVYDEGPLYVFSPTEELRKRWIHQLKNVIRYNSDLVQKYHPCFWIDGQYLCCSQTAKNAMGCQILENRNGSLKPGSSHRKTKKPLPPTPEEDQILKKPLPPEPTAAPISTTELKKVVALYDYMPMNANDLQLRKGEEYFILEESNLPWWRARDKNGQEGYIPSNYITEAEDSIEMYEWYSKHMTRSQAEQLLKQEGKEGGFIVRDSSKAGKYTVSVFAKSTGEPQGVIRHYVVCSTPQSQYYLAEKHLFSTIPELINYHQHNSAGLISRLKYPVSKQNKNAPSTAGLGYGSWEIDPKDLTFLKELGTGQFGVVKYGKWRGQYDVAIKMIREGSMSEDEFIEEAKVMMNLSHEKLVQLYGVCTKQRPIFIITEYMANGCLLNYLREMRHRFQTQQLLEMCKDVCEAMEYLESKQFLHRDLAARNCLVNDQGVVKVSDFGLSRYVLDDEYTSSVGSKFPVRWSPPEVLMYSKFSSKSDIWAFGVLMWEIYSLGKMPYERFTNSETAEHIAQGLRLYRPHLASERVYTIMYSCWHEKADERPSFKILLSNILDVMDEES
T1 sequence (Q06187 382-659 limits assumed): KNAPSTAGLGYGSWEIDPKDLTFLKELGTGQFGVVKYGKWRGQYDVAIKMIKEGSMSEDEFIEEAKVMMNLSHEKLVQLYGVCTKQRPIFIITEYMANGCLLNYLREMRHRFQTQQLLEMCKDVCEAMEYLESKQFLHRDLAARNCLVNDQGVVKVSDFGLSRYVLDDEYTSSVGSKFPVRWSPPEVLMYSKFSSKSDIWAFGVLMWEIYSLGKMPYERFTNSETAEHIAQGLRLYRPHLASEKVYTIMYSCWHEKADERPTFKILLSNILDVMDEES
T1 sequence (Q96SW2 whole entry): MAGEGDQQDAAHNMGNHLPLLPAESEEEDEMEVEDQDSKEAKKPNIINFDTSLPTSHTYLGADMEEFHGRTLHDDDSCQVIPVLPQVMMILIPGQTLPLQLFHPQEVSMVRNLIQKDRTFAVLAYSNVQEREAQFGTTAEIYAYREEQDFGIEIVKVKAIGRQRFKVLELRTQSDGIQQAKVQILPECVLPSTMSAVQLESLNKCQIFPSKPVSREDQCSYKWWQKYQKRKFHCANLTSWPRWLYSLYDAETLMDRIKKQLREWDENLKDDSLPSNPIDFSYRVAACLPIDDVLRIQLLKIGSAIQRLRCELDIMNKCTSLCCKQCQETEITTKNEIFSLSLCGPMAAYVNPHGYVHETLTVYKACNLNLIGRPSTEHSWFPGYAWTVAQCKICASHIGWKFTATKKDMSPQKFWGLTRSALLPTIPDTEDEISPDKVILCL

Turning to `CN(CCCNC(=O)CNc1cccc2c1C(=O)N(C1CCC(=O)NC1=O)C2=O)C(C)(C)C=C(C#N)C(=O)N1CCC[C@@H](n2nc(-c3ccc(Oc4ccccc4)cc3)c3c(N)ncnc32)C1` (stereo partly shown) [RC-1], the “BTK level reduction in the spleens” value at BTK (20 mg kg^−1 i.p., 7 daily injections, vs vehicle-treated mice) is ~ 50%. Also, the results for the “BTK level, mean” value at BTK (1 injection) and on BTK (7 injections) were 58.8522 and 59.7357, respectively. The BTK quantification on BTK (RC-1 50 mg/kg, 50 mg/kg) is 56.2321 and 63.4217 and 82.4136 and 62.324; at BTK (RC-1 100 mg/kg, 100 mg/kg), 59.6665 and 43.7954 and 40.8615. The AUC in data set [1] (setting [3]) stood at 72 µM·h. This compound yielded a Cmax in data set [1] (setting [3]) of 20 µM. Besides, the half-life in data set [1] (female, mouse, plasma, ip, 20 mg kg^−1, i.p., ICR mice, read-out: plasma half-life (t1/2) (converted)) is 3.4 h. Further, the “plasma concentration maintained over 24 h” value in data set [1] (single i.p. injection 20 mg/kg) is “above 200 nM”. The “green fluorescent droplets (ternary complex formation)” value in data set [2] is listed as “induced appreciable green fluorescent droplets”.

As a reminder, the AUC is concentration integrated over time. A lower AUC goes with low exposure. One may read the Cmax as the highest concentration seen after dosing.
